Data taken from US11272841B2, “Indicator fluids, systems, and methods for assessing movement of substances within, to or from a cerebrospinal fluid, brain or spinal cord compartment of a cranio-spinal cavity of a human” (BRAINWIDESOLUTIONS AS, priority 2017, dated 2022).

Assay: Percentage change in normalized T1 signal unit ratios in FreeSurfer-segmented brain regions after intrathecal gadobutrol (Table 5, FIG. 14e-h)
Assay type: in vivo, human
Details: for Percentage change in signal unit ratios: mean ± SD
Source text: The alignment of longitudinal data is illustrated in FIG. 14c-d. When repeated MRIs are obtained proper alignment is necessary for use of segmentation tools. Otherwise, it is not possible to examine how signals within defined regions of interest change over time. […] The co-registered MRI 1409 show no good co-registration. In FIG. 14d is shown coronal T1 MRIs at Time 1 1410 and Time 2 1411, including co-registered MRIs 1412. In this latter case proper alignment is obtained. Methodology for alignment is established from prior art, as is methodology for segmentation of MRI acquisitions. The inventors have used the FreeSurfer software (version 6.0) (http://surfer.nmr.mgh.harvard.edu/) for segmentation and parcellation, and to measure how an indicator fluid present within CSF (the MRI contrast agent gadobutrol) changed the T1 SU. In this case, the MRI contrast agent was used as CSF tracer. The FreeSurfer software utilizes automated Talairach transformation 1402, and allows for segmentation of a wide range of brain regions, including the subcortical white matter and deep gray matter volumetric structures (including hippocampus, amygdala, caudate, putamen, ventricles).
Using prior art methodology for alignment and segmentation, changes in indication signals over time may be determined. This is further illustrated in Table 5. The results are from 8 individuals who underwent MRI for tentative idiopathic intracranial hypotension due to CSF leakage. A CSF leakage was identified in 3/8 individuals. Otherwise the individuals were healthy. Table 5 presents the percentage change in normalized T1 signals, i.e. indication signal ratios, over time, as compared to T1 weighted MRI without CSF tracer present. […] The MRI signal increase was significant at all main locations (Table 5). The determination of signal unit ratios was described with reference to FIG. 7.
Each image acquisition lasted 6 minutes and 29 seconds.
The inventors determined percentage change in signal units when indicator fluid was present in the CSF compartment, as compared to a point of time without any indicator fluid within the CSF compartment. Four different regions were examined, segmented using FreeSurfer, namely CSF (FIG. 14e), entorhinal cortex (FIG. 14f), hippocampus (FIG. 14g) and Limbic structures (FIG. 14h). The two cohorts of individuals included reference subjects who were close to healthy and a population with a subtype of dementia. For the CSF compartment (FIG. 14e) is shown percentage change in signal unit ratios 1413 versus time 1414, including trend plots for reference subjects 1415 and individuals with dementia 1416. […] Peak for reference subjects occurred after 6-9 hours while after 24 hours for the dementia population.

Percentage change in signal unit ratios (Basal ganglia, 1.5-2 hours): −3 ± 8%
Percentage change in signal unit ratios (Basal ganglia, 2-4 hours): −6 ± 14%
Percentage change in signal unit ratios (Basal ganglia, 4-6 hours): 1 ± 25%
Percentage change in signal unit ratios (Basal ganglia, 6-9 hours): −4 ± 14%
Percentage change in signal unit ratios (Basal ganglia, 24 hours): 4 ± 18%
Time of peak percentage change in signal unit ratios (CSF (FIG. 14e), reference subjects and dementia individuals): 6 to 9 h
Percentage change in signal unit ratios (CSF [24], 1.5-2 hours after intrathecal gadobutrol, 8 individuals): 16 ± 20%
Percentage change in signal unit ratios (CSF [24], 2-4 hours): 101 ± 116%
Percentage change in signal unit ratios (CSF [24], 4-6 hours): 354 ± 309%
Percentage change in signal unit ratios (CSF [24], 6-9 hours): 500 ± 421%
Percentage change in signal unit ratios (CSF [24], 24 hours): 157 ± 164%
Percentage change in signal unit ratios (Cerebellar cortex, 1.5-2 hours): 6 ± 6%
Percentage change in signal unit ratios (Cerebellar cortex, 2-4 hours): 12 ± 27%
Percentage change in signal unit ratios (Cerebellar cortex, 4-6 hours): 45 ± 58%
Percentage change in signal unit ratios (Cerebellar cortex, 6-9 hours): 67 ± 80%
Percentage change in signal unit ratios (Cerebellar cortex, 24 hours): 53 ± 47%
Percentage change in signal unit ratios (Cerebellar white matter, 1.5-2 hours): 1 ± 9%
Percentage change in signal unit ratios (Cerebellar white matter, 2-4 hours): −3 ± 14%
Percentage change in signal unit ratios (Cerebellar white matter, 4-6 hours): 3 ± 23%
Percentage change in signal unit ratios (Cerebellar white matter, 6-9 hours): 2 ± 19%
Percentage change in signal unit ratios (Cerebellar white matter, 24 hours): 15 ± 23%
Percentage change in signal unit ratios (Cerebral cortex (grey matter), 1.5-2 hours): −3 ± 7%
Percentage change in signal unit ratios (Cerebral cortex (grey matter), 2-4 hours): −1 ± 15%
Percentage change in signal unit ratios (Cerebral cortex (grey matter), 4-6 hours): 26 ± 44%
Percentage change in signal unit ratios (Cerebral cortex (grey matter), 6-9 hours): 44 ± 50%
Percentage change in signal unit ratios (Cerebral cortex (grey matter), 24 hours): 52 ± 54%
Percentage change in signal unit ratios (Cerebral white matter, 1.5-2 hours): −3 ± 9%
Percentage change in signal unit ratios (Cerebral white matter, 2-4 hours): −1 ± 18%
Percentage change in signal unit ratios (Cerebral white matter, 4-6 hours): 26 ± 40%
Percentage change in signal unit ratios (Cerebral white matter, 6-9 hours): 34 ± 46%
Percentage change in signal unit ratios (Cerebral white matter, 24 hours): 27 ± 33%
Percentage change in signal unit ratios (Hippocampus, amygdala, accumbens, entorhinal, 1.5-2 hours): −2 ± 7%
Percentage change in signal unit ratios (Hippocampus, amygdala, accumbens, entorhinal, 2-4 hours): −1 ± 15%
Percentage change in signal unit ratios (Hippocampus, amygdala, accumbens, entorhinal, 4-6 hours): 28 ± 38%
Percentage change in signal unit ratios (Hippocampus, amygdala, accumbens, entorhinal, 6-9 hours): 43 ± 43%
Percentage change in signal unit ratios (Hippocampus, amygdala, accumbens, entorhinal, 24 hours): 42 ± 39%
Percentage change in signal unit ratios (Thalamus, 1.5-2 hours): −2 ± 8%
Percentage change in signal unit ratios (Thalamus, 2-4 hours): −4 ± 15%
Percentage change in signal unit ratios (Thalamus, 4-6 hours): 5 ± 26%
Percentage change in signal unit ratios (Thalamus, 6-9 hours): 2 ± 18%
Percentage change in signal unit ratios (Thalamus, 24 hours): 11 ± 21%
Time of peak percentage change in signal unit ratios (entorhinal cortex, dementia population): 24 h
Time of peak percentage change in signal unit ratios (entorhinal cortex, reference subjects): 6 to 9 h
Time of peak percentage change in signal unit ratios (hippocampus, dementia cohort): 24 h
Time of peak percentage change in signal unit ratios (hippocampus, reference subjects): 6 to 9 h
Time of peak percentage change in signal unit ratios (limbic structures, dementia cohort): 24 h
Time of peak percentage change in signal unit ratios (limbic structures, reference subjects): 6 to 9 h
SMILES: O=C([O-])CN1CCN(CC(=O)[O-])CCN([C@H](CO)[C@H](O)CO)CCN(CC(=O)[O-])CC1.[Gd+3] (racemic) [gadobutrol]
